According to patent US11458163B2, “Platinum(IV) conjugates and methods of use” (priority 2019, dated 2022):
Entries after “also recorded” stand apart in the source; their conditions may differ.

How the values were obtained:
[1] = system: AT84 murine head and neck squamous cell carcinoma cell line; experiment: Anti-proliferation study, AT84 cells (Resazurin Blue); format: cell-based, mouse; details: 72 hours, n=7-8
Protocol: AT84 cells were derived from a spontaneous squamous cell carcinoma in the oral mucosa of a C3H mouse (19,20) and were gifted by Aldo Venuti (Regina Elena National Cancer Institute, Rome, Italy). Cells tested negative for interspecies contamination (Idexx BioResearch, CellCheck STR profiling). Cells tested negative for rodent pathogens (Idexx BioResearch, IMPACT I PCR profile). Cells tested negative for Mycoplasm contamination (Lonza, Basel, Switzerland, MycoAlert test kit). Cells were cultured in RPMI-1640 media (Gibco, Thermo Fisher Scientific, Waltham, Mass.) supplemented with 10% FBS (Corning Corning, N.Y.), and 100 U/mL penicillin/100 μg/mL streptomycin (HyClone, Thermo Fisher Scientific, Waltham, Mass.) in a humidified incubator at 37° C. and 5% CO2.
AT84 cells were maintained in RPMI-1640 media (Gibco) with 10% fetal bovine serum (Corning), and 100 U/mL penicillin/100 μg/mL streptomycin (HyClone) in a humidified incubator at 37° C. and 5% CO2. Cells were seeded into 96-well plates (3,000 cells/well in 90 ul media) and allowed to attach overnight. […] Fluorescence (λex 550 nm, λem 605 nm) was quantified with a SpectraMax Gemini XS plate-reader (Molecular Devices, Sunnyvale, Calif.). […] Data from at least five separate experiments was analyzed using non-linear regression (GraphPad Prism 5.0) to generate […].

[2] = system: calreticulin (CRT); experiment: Calreticulin translocation in AT84 cells transfected with mouse CRT-HaloTag-KDEL fusion protein; format: cell-based; details: 500 μM, 12-15 hours (overnight)
Source text: Plasmid: The full cDNA sequence of the insert was published by Golden et al. (21) and codes for a mouse calreticulin-HaloTag®-KDEL fusion protein. The cDNA sequence includes Mus musculus calreticulin (Accession BC003453, Version BC003453.1, CDS 37-1286), the HaloTag® vector (Accession HM157289, Version HM157289.1, CDS 197-1081), and a KDEL sequence. This cDNA sequence was inserted into a mammalian expression vector, pD643-Rc, by DNA2.0 (now ATUM, Newark, Calif.). The vector includes a CayenneRFP reporter protein (Ex:554 nm/Em:590 nm) used to visualize positively transfected cells.
AT84 cells were plated in 6-well culture plates and allowed to grow to ˜90% confluence. Cells were transfected with a plasmid containing a mouse calreticulin-HaloTag®-KDEL fusion protein and a CayenneRFP reporter protein using lipofectamine (Invitrogen, Carlsbad, Calif.). Five microliters of lipofectamine was added to 150 μl Opti-MEM (Gibco, Thermo Fisher Scientific, Waltham, Mass.). Ten micrograms of plasmid DNA was added to 150 μl Opti-MEM. Both solutions were incubated at room temperature for 5 minutes. DNA solution was added to lipofectamine solution and incubated for 20 minutes at room temperature. During incubation, media on the cells were replaced with serum-free media (2 mL). 250 μl of DNA:lipofectamine solution was added dropwise to each well, which contained 2 mL of serum-free media. […]

[3] = cited from earlier work
[4] = system: AT84 allografts; experiment: Immunocompetent tumor model: orthotopic AT84 allografts in C3H mice; format: in vivo
Protocol: Wildtype C3H mice (Charles River Strain 025, 6-8 weeks old, 20-25 g) were used for in vivo tumor studies. Both male and female mice were used in the studies. […] Mice were anesthetized using 5% isoflurane in O2 for 5 minutes. One million AT84 cells in 50 μl PBS were injected subcutaneous (s.c.) into the floor of the mouth via an extra-oral route of C3H mice to obtain orthotopic allograft tumors (19,20). […] Under isoflurane anesthesia, Pt(IV)-toco/HA-toco composition (3 mg/kg on Pt(IV)-toco basis) or vehicle (50 μl hyaluronan-tocopherol, 16.7 mg/mL) was injected intratumoral on days 4, 11, and 18 after the tumor cell injection. Tumor size was calculated: tumor volume (mm^3)=0.52×(width)^2×length, where length is the longer of two perpendicular dimensions.

[5] = system: MDA-1986 xenografts; experiment: Immunodeficient tumor model: orthotopic MDA-1986 xenografts in nude mice; format: in vivo
Protocol: Nude mice (Charles River Ath/nu, 6-8 weeks old, 20-25 g) were used for in vivo tumor studies. Both male and female mice were used in the studies. […] Mice were anesthetized using 5% isoflurane in O2 for 5 minutes. One million MDA-1986 cells in 50 μl PBS were injected subcutaneous into the left cheek of nude mice to obtain orthotopic xenograft tumors (13,15). Treatment began when tumors reached 75 mm^3. Under isoflurane anesthesia, Pt(IV)-toco/HA-toco composition (3 mg/kg on Pt(IV)-toco basis) or vehicle (1.5 MDa hyaluronan, 16.7 mg/mL) was injected intratumoral on days 14, 21, and 28 after the tumor cell injection. Tumor size was calculated using the same equation as stated in the C3H model.

[6] = system: naturally occurring cancers; experiment: Open-label compassionate-care clinical trial of intralesional therapy in pet dogs; format: in vivo, dog; details: proposed dose level
Protocol: An open-label, compassionate-care clinical trial was conducted in pet dogs with various types of cancer to evaluate the feasibility of intralesional delivery of Pt(IV)-toco/HA-toco composition as chemotherapy. The most common types of cancer include squamous cell carcinoma, soft tissue sarcoma, and oral melanoma. Typical exclusion criteria such as small breeds, large tumor burden, short life expectancy, metastatic disease, and certain pre-existing conditions (e.g., Cushing's disease) were not implemented in this study.
The reported study was conducted in 18 veterinary hospitals in the Kansas City area. Most pets received either Pt(IV)-toco/HA-toco or HylaPlat treatment at 3-week intervals for up to 10 treatments, ranging from 1 to 17.5 mg/m^2 on cisplatin basis. Clinical chemistry and hematology were obtained before and after each treatment to evaluate the tolerability of the therapy. A physical exam including measurements of tumor(s) was performed approximately every 3-weeks to monitor the response status of the subjects.

[7] = Ongoing tolerability studies in rabbits; format: in vivo; details: proposed dose level
[8] = system: calf thymus DNAs; details: cited from earlier work
[9] = last pair of measurements vs control, 3 mg/kg intratumoral once per week for 3 weeks

Which results are given for `N.N.[Cl][Pt][Cl]` [cisplatin, Cis-Dichlorodiamine platinum (II)]?
IC50 [1]: 3000 ± 260 nM; CRT translocation to the cell surface (indicator of ICD) [2]: does not cause CRT translocation to the membrane; also recorded: does not show CRT translocation; safety in cats [3]: hydrothorax, pulmonary and mediastinal edema

With `N.N.O=C([O-])C1(C(=O)[O-])CCC1.[Pt+2]` [carboplatin] as the compound, how does the safety in cats [3] read?
Its safety in cats is “may be safe”.

What does the source list for Pt(IV)-Su-Gly-Toco [Pt(IV)-toco]?
tumor volume, mean±SEM, last pair of measurements ([4]; 3 mg/kg on Pt(IV)-toco basis intratumoral, days 4, 11, 18): 1024±129 mm^3; survival rate ([4]; by the time all control mice have succumbed): 100%; tumor inhibition [4, 9]: 49%; tumor volume, mean SEM, last pair of measurements ([5]; 3 mg/kg on Pt(IV)-toco basis intratumoral, days 14, 21, 28): 812±150 mm^3; tumor inhibition [5, 9]: 43%; dose-limiting toxicities (renal dysfunction, ototoxicity, peripheral neuropathy) [6]: did not cause any dose-limiting toxicities; dose-limiting toxicities (renal dysfunction, ototoxicity, peripheral neuropathy) [7]: did not cause any dose-limiting toxicities

Which “CRT translocation to the cell surface (indicator of ICD)” value [2] does the source give for `O=C1[O][Pt]2([NH][C@@H]3CCCC[C@H]3[NH]2)[O]C1=O` [oxaliplatin, Oxaliplatin] here?
Its value is “membrane translocation of CRT is observed; also recorded: show CRT translocation”.

What about the “formation of Pt-DNA adducts relative to cisplatin” value [8] of the same compound?
Its value is “approximately one tenth”.
